In paper PMC8536644, “Enigmatic mechanism of the N-vinylpyrrolidone hepatocarcinogenicity in the rat” (Archives of Toxicology, 2021):
Values joined by “and” are separate entries in the source; they are usually repeats but may differ in a detail not shown here. Identical values can stand only once.

Assays:
[1] = tested on: rat lung cells; assay: Comet assay, conventional (no FPG), lung; conditions: no FPG; for Increase of the TI vs vehicle control / Hedgehogs/100 cells (mean ± SD) / TI (%) (mean ± SD) / TI (%), mean of medians from 2 slides: lung; for Increase of the TI vs vehicle control: p ≤ 0.01; for Hedgehogs/100 cells (mean ± SD) / TI (%) (mean ± SD) / TI (%), mean of medians from 2 slides: 200 mg/kg bw oral, once; for TI (%), mean of medians from 2 slides: individual animals
Protocol: (§1) Animals were anesthetized by 3.5% isoflurane (approximately 3 min, evaporator Dräger Vapor 19.3) and then killed by cervical dislocation. The liver was removed and its left lateral lobe used for the Comet assay. The remainder of the liver was washed in saline and then in two aliquots shock frozen in liquid nitrogen and stored at − 80 °C for later examinations. Subsequently the lung was removed from the dead animal. Its left lobe was used for the Comet assay and the remainder treated as described above for the liver. Thereafter the femora were removed for the preparation of the bone marrow.
(§2) The Comet assay was performed under alkaline conditions according to the principles described by Singh et al. ([1988]) and Tice et al. ([2000]).
(§3) Liver and lung cells were obtained essentially as described by Hartmann et al. ([2004]) and by the Japanese Center for the Validation of Alternative Methods (JaCVAM [2009]). Single cells were obtained within 1 h after killing of the animals in order to minimize DNA damage during the preparation.
(§4) The organ parts (see above) were washed in mincing buffer (50 mM EDTA in HBSS [without Ca^2+ and Mg^2+] pH 7.5: DMSO 9:1 (v/v), the latter added shortly before use, stored at 4 °C), cut into 1 to 2-mm pieces in ice-cold mincing buffer and transferred to a cell sieve with 70-µm pores. The viability of the cell suspension was evaluated by the Trypan Blue Assay (Strober [2001]).
(§5) 100 µL of the obtained cell suspension was mixed at 37 °C with 900 µL Low Melting Agarose (LMA) (0.7% agarose in phosphate-buffered saline [PBS] [Biochrom, Berlin, Germany] without Ca^2+ and Mg^2+). 100 µL of this mixture was transferred to a slide, which had been coated with Normal Melting Agarose (NMA) (0.6% agarose in PBS without Ca^2+ and Mg^2+). The slides were protected with a cover slip and the agarose was hardened at approximately 4 °C. The cover slips were then removed and the slides put over night at 4 °C into lysis buffer (2.5 M NaCl, 125 mM NaOH, 127 mM EDTA, 10 mM Tris/NaOH, pH 10; 1% Triton X-100 and 10% DMSO (v/v), the latter two added before use) in order to lyse the cell membrane, nuclear membrane and remove the histone.
(§6) The then following procedures were performed in a shaded room to minimize UV-mediated DNA damage during the procedures.
(§7) Remaining lysis buffer or FPG buffer was removed by immersing/washing the slides in PBS (without Ca^2+ and Mg^2+).
The slides were then placed into the electrophoresis chamber, which was cooled and protected from light. Slides were covered with electrophoresis buffer (0.3 M NaOH, 1 mM EDTA, pH > 13) carefully avoiding air bubbles. The DNA was allowed to unwind (20 min). Thereafter the electrophoresis was started (25 V, 300 mA, […], 30 min). The slides were then washed (2 times 5 min) in neutralization buffer (0.4 M Tris/HCl, pH 7.5), dehydrated and fixed in 100% ethanol (1 min), dried at room temperature overnight and stored at room temperature protected from dust.
Quantitative evaluation of the Comet assays was performed by fluorescence microscopy after DNA staining with ethidium bromide.

[2] = tested on: rat liver cells; assay: Comet assay in presence of FPG, liver; conditions: in presence of FPG, 200 mg/kg
Protocol: as §1, §2, §3, §4, §5, §6
Those slides which were destined to be treated with the DNA base excision repair enzyme FPG (Sigma Aldrich, Steinheim, Germany) were washed (3 times for 5 min) with FPG buffer (0.04 M HEPES, 0.5 mM EDTA, 0.1 M KCl, pH 8; add shortly before use bovine serum albumin [BSA] to a final concentration of 0.02%). Subsequently 50 µL FPG-enzyme-buffer (prepared shortly prior to use by 30-fold dilution of the following suspension in FPG buffer: 7 µL FPG-enzyme (14 U) and 70 µL glycerol in 623 µL FPG-Puffer, stored at − 80 °C) was pipetted on the slide which was covered with a cover slide and incubated for 30 min at 37 °C while being placed on a humid filter paper. After hardening of the agarose cover slips were removed.
as §7

[3] = Trypan Blue viability of the single cell suspension, lung; assay type: in vivo, rat; conditions: Wistar, rat, in vivo, po, 200 mg/kg

Structure (SMILES): CCOS(C)(=O)=O [EMS, ethyl methanesulfonate, reference compound]
- Hedgehogs per 100 cells, averaged for both genders ([1]; lung cells, 200 mg/kg): 9 per 100 cells
- Increase of the TI vs vehicle control ([1]; female, 200 mg/kg): 21 fold
- Hedgehogs/100 cells (mean ± SD) ([1]; female): 9 ± 5 /100 cells
- TI (%) (mean ± SD) ([1]; female): 16.7 ± 2.83%
- TI (%), mean of medians from 2 slides ([1]; female, 200 mg/kg): 13.2% and 13.0% and 18.7% and 18.8% and 17.8%
- Increase of the TI vs vehicle control ([1]; male, 200 mg/kg): 17 fold
- Hedgehogs/100 cells (mean ± SD) ([1]; male): 9 ± 4 /100 cells
- TI (%) (mean ± SD) ([1]; male): 19.3 ± 5.15%
- TI (%), mean of medians from 2 slides ([1]; male, 200 mg/kg): 20.7% and 14.6% and 26.5% and 13.1% and 23.3% and 17.8%
- Comets seen in presence of FPG [2]: only hedgehogs were seen
- TI in presence of FPG (image analysis) [2]: marked increase
- viability at 24 h ([3]; female, Individual viability (%)): 99%
- viability at 24 h ([3]; female, Viability (%) (mean ± SD)): 99 ± 1%
- viability at 24 h ([3]; male, Individual viability (%)): 99%
- viability at 24 h ([3]; male, Viability (%) (mean ± SD)): 99 ± 1%
